Assays:
[1] = test system: S. mutans 10449; assay: Inhibitory effect on extracellular polysaccharide synthesis, standard strain; type: cell-based, Streptococcus mutans; conditions: 1 mM
Experimental: (§1) In order to identify the effect by which medium-chain fatty acids inhibit plaque matrix formation, inhibitory effect and concentration of extracellular polysaccharide synthesis were determined in seven kinds of standard cariogenic plaque bacteria. Also, the inhibitory effect of extracellular polysaccharide synthesis for 20 kinds of cariogenic plaque bacteria, separated from the human oral cavity, was measured. Liquid culture media used were: Todd-Hewitt broth of Streptococcus, Lactobacilli MRS broth of Lactobacillus and Brain Heart Infusion broth of Actinomyces. 0.1 ml of bacterial (or cell) suspension (OD600 =0.5) of each bacteria was inoculated to 5.9 ml of culture media containing 1 mM of medium-chain fatty acids and 2% of glucose, and was cultured for 24^~ 48 hours in 10% CO2 incubator. After culturing, the resultant was centrifuged to precipitate at 5,000×g for 15 minutes, then soluble extracellular polysaccharide was separated and purified from the supernatant and insoluble extracellular polysaccharide from the cell pellet, and then these were quantified.

[2] = test system: S. mutans BHT; assay: as above; type: cell-based, Streptococcus mutans; conditions: 1 mM
Experimental: as §1

[3] = test system: S. mutans JC-2; assay: as above; type: cell-based, Streptococcus mutans; conditions: 1 mM
Experimental: as §1

[4] = test system: L. casei ATCC 27216; assay: as above; type: cell-based, Lactobacillus casei; conditions: 1 mM
Experimental: as §1

[5] = test system: L. casei ATCC 4646; assay: as above; type: cell-based, Lactobacillus casei; conditions: 1 mM
Experimental: as §1

[6] = Extracellular polysaccharide in liquid medium with fatty acid, no bacteria
Experimental: as §1

[7] = test system: Lactobacillus casei; assay: Extracellular polysaccharide synthesis in plaque bacteria separated from human oral cavities; type: cell-based; conditions: 1 mM
Experimental: as §1, with “quantified. So the experimental results that represent inhibitory effect of medium-chain fatty acids upon extracellular polysaccharide synthesis, are shown in table 1, 2, 3 and 4.” for “quantified.”

[8] = test system: Streptococcus mutans; assay: as above; type: cell-based; conditions: 1 mM
Experimental: as §1, with “quantified. So the experimental results that represent inhibitory effect of medium-chain fatty acids upon extracellular polysaccharide synthesis, are shown in table 1, 2, 3 and 4.” for “quantified.”

[9] = test system: Streptococcus sobrinus; assay: as above; type: cell-based; conditions: isolate XX, 1 mM
Experimental: as §1, with “quantified. So the experimental results that represent inhibitory effect of medium-chain fatty acids upon extracellular polysaccharide synthesis, are shown in table 1, 2, 3 and 4.” for “quantified.”

[10] = test system: cariogenic plaque bacteria; assay: Inhibitory effect on extracellular polysaccharide synthesis (summary); type: cell-based, Streptococcus, Lactobacillus and Actinomyces; conditions: 1 mM
Experimental: as §1, with “quantified. So the experimental results that represent inhibitory effect of medium-chain fatty acids upon extracellular polysaccharide synthesis, are shown in table 1, 2, 3 and 4.” for “quantified.”

[11] = test system: cariogenic plaque bacteria (standard strains); assay: Inhibitory effect of bacterial growth, standard strains; type: cell-based, Streptococcus, Lactobacillus and Actinomyces
Experimental: (§2) In order to evaluate how medium-chain fatty acids influence bacterial growth of cariogenic plaque bacteria, the influence on each bacteria was evaluated after selecting seven kinds of bacterial strains as standard bacteria among cariogenic plaque bacteria. […] The results that medium-chain fatty acids have on influencing bacterial growth of cariogenic plaque bacteria is shown in FIG. 3. And the result of measuring inhibitory effect of bacterial growth of 20 kinds of cariogenic plaque bacteria separated from the human oral cavities is shown in FIG. 4.

[12] = test system: cariogenic plaque bacteria separated from human oral cavities; assay: Inhibitory effect of bacterial growth, bacteria separated from human oral cavities; type: cell-based; conditions: 1 mM lauric acid as salt form; neutral and acidic pH; FIG. 4
Experimental: as §2

What does the source list for `CCCCCCCCCCCC(=O)[O-].[Na+]` [C12, sodium laurate]?
Extracellular polysaccharide, insoluble ([1]; 2% glucose, 24-48 hours, control 0.8 ± 0.3): 0.2 ± 0.1 µg/mL; Extracellular polysaccharide, soluble ([1]; 2% glucose, 24-48 hours, control 74.6 ± 1.8): 15.5 ± 3.8 µg/mL; Inhibitory rate, soluble ([1]; vs control): 79%; Extracellular polysaccharide, soluble ([2]; 2% glucose, 24-48 hours, control 31.5 ± 3.7): 4.1 ± 0.8 µg/mL; Inhibitory rate, soluble ([2]; vs control): 87%; Extracellular polysaccharide, insoluble ([3]; 2% glucose, 24-48 hours, control 1.1 ± 0.2): 0.1 ± 0.1 µg/mL; Extracellular polysaccharide, soluble ([3]; 2% glucose, 24-48 hours, control 34.4 ± 3.9): 0.6 ± 0.5 µg/mL; Inhibitory rate, soluble ([3]; vs control): 98%; Extracellular polysaccharide, insoluble ([4]; 2% glucose, 24-48 hours, control 5.9 ± 0.4): 2.0 ± 0.1 µg/mL; Extracellular polysaccharide, soluble ([4]; 2% glucose, 24-48 hours, control 67.3 ± 4.5): 19.0 ± 2.1 µg/mL; Inhibitory rate, soluble ([4]; vs control): 72%; Extracellular polysaccharide, insoluble ([5]; 2% glucose, 24-48 hours, control 5.3 ± 0.5): 0.2 ± 0.2 µg/mL; Extracellular polysaccharide, soluble ([5]; 2% glucose, 24-48 hours, control 43.6 ± 7.0): 19.2 ± 2.9 µg/mL; Inhibitory rate, soluble ([5]; vs control): 56%; Extracellular polysaccharide, soluble ([6]; Table 1, 1 mM): 1.4 ± 0.1 µg/mL; Extracellular polysaccharide, soluble ([6]; Table 2, 1 mM): 4.6 ± 1.3 µg/mL; Extracellular polysaccharide, soluble ([6]; Table 3, 1 mM): 4.4 ± 0.2 µg/mL; Inhibitory rate ([7]; isolate I): 76%; Soluble extracellular polysaccharide ([7]; isolate I, control 105.1 ± 7.2): 25.1 ± 1.7 µg/mL; Inhibitory rate ([7]; isolate II): 71%; Soluble extracellular polysaccharide ([7]; isolate II, control 121.4 ± 27.1): 35.0 ± 2.9 µg/mL; Inhibitory rate ([7]; isolate III): 75%; Soluble extracellular polysaccharide ([7]; isolate III, control 140.4 ± 4.9): 34.7 ± 0.9 µg/mL; Inhibitory rate ([7]; isolate IV): 74%; Soluble extracellular polysaccharide ([7]; isolate IV, control 151.4 ± 7.6): 38.8 ± 4.1 µg/mL; Inhibitory rate ([7]; isolate IX): 79%; Soluble extracellular polysaccharide ([7]; isolate IX, control 214.6 ± 18.8): 46.1 ± 3.0 µg/mL; Inhibitory rate ([7]; isolate V): 73%; Soluble extracellular polysaccharide ([7]; isolate V, control 137.4 ± 21.8): 36.6 ± 4.3 µg/mL; Inhibitory rate ([7]; isolate VI): 74%; Soluble extracellular polysaccharide ([7]; isolate VI, control 184.6 ± 6.5): 48.5 ± 2.7 µg/mL; Inhibitory rate ([7]; isolate VII): 70%; Soluble extracellular polysaccharide ([7]; isolate VII, control 149.9 ± 16.8): 44.7 ± 3.1 µg/mL; Inhibitory rate ([7]; isolate VIII): 72%; Soluble extracellular polysaccharide ([7]; isolate VIII, control 221.6 ± 20.1): 62.6 ± 3.4 µg/mL; Inhibitory rate ([7]; isolate X): 72%; Soluble extracellular polysaccharide ([7]; isolate X, control 201.7 ± 36.1): 56.3 ± 8.2 µg/mL; Inhibitory rate ([8]; isolate XI): 70%; Soluble extracellular polysaccharide ([8]; isolate XI, control 95.2 ± 8.3): 28.6 ± 3.5 µg/mL; Inhibitory rate ([8]; isolate XII): 58%; Soluble extracellular polysaccharide ([8]; isolate XII, control 84.2 ± 8.6): 35.2 ± 5.0 µg/mL; Inhibitory rate ([8]; isolate XIII): 69%; Soluble extracellular polysaccharide ([8]; isolate XIII, control 90.5 ± 8.3): 27.7 ± 3.3 µg/mL; Inhibitory rate ([8]; isolate XIV): 53%; Soluble extracellular polysaccharide ([8]; isolate XIV, control 90.5 ± 2.9): 42.6 ± 1.0 µg/mL; Inhibitory rate ([8]; isolate XIX): 70%; Soluble extracellular polysaccharide ([8]; isolate XIX, control 113.7 ± 6.8): 34.3 ± 3.3 µg/mL; Inhibitory rate ([8]; isolate XV): 62%; Soluble extracellular polysaccharide ([8]; isolate XV, control 117.9 ± 4.6): 44.5 ± 1.7 µg/mL; Inhibitory rate ([8]; isolate XVI): 66%; Soluble extracellular polysaccharide ([8]; isolate XVI, control 143.2 ± 11.1): 48.2 ± 4.5 µg/mL; Inhibitory rate ([8]; isolate XVII): 67%; Soluble extracellular polysaccharide ([8]; isolate XVII, control 107.8 ± 17.0): 35.4 ± 2.1 µg/mL; Inhibitory rate ([8]; isolate XVIII): 59%; Soluble extracellular polysaccharide ([8]; isolate XVIII, control 98.5 ± 9.0): 40.5 ± 1.7 µg/mL; Inhibitory rate [9]: 79%; Soluble extracellular polysaccharide ([9]; control 116.0 ± 17.2): 24.0 ± 1.5 µg/mL; inhibitory effect of extracellular polysaccharide synthesis (in words) [10]: inhibited in the highest degree; inhibitory effect of extracellular polysaccharide synthesis, sequence ([10]; ranking): sodium laurate>sodium capriate>sodium nonanoate; inhibitory effect of bacterial growth (in words) ([11]; 0.5-8 mM, pH 5.0 and 7.0, OD 600 nm, 24-48 hours): almost completely inhibits; inhibitory effect of bacterial growth, sequence ([11]; ranking, FIG. 3): sodium laurate>sodium capriate>sodium nonanoate; inhibition of bacterial growth (in words) [12]: more remarkable effects even at low concentration than that of the control group

— patent publication US6180599A, “Pharmaceutical composition, containing medium-chain fatty acids as active ingredients, for dental caries and periodontal disease” (priority 1997, dated 2001)
